Assay results: ChEMBL document CHEMBL5346893, “1,2,4-Amino-triazine derivatives as pyruvate dehydrogenase kinase inhibitors: Synthesis and pharmacological evaluation” (Eur J Med Chem, 2023)
pIC50: −log10 of the molar value. Active and inactive are the calls of the source. No cut-off for these calls is given here.

Columns and labels:
[1] = biological target: [Pyruvate dehydrogenase (acetyl-transferring)] kinase isozyme 3, mitochondrial (Homo sapiens) (UniProt Q15120); test: Inhibition of PDK3 (unknown origin) at 1.5 uM incubated for 30 mins followed by substrate addition measured after 60 mins in presence of ATP by ADP-Glo luminescent assay relative to control; conditions: time 90.0 min
[2] = biological target: [Pyruvate dehydrogenase (acetyl-transferring)] kinase isozyme 2, mitochondrial (Homo sapiens) (UniProt Q15119); test: Inhibition of PDK2 (unknown origin) at 1.5 uM incubated for 30 mins followed by substrate addition measured after 60 mins in presence of ATP by ADP-Glo luminescent assay relative to control; conditions: time 90.0 min
BXPC-3 [3] = test: Antiproliferative activity against human BXPC-3 cells expressing wild type KRAS cultured as 2D spheroids assessed as inhibition of cell growth measured after 72 hrs by MTT assay; assay type: functional, cell-based; conditions: BXPC-3, 72 h
PSN1 [4] = test: Antiproliferative activity against human PSN1 cells expressing KRAS mutant cultured as 2D spheroids assessed as inhibition of cell growth measured after 72 hrs by MTT assay; assay type: functional, cell-based; conditions: PSN1, 72 h
[5] = biological target: T1, [Pyruvate dehydrogenase (acetyl-transferring)] kinase isozyme 1, mitochondrial (Homo sapiens, UniProt Q15118); test: Inhibition of PDK1 (unknown origin) at 1.5 uM incubated for 30 mins followed by substrate addition measured after 60 mins in presence of ATP by ADP-Glo luminescent assay relative to control; conditions: time 90.0 min, values are per cent of control
BXPC-3 [6] = test: Antiproliferative activity against human BXPC-3 cells expressing wild type KRAS cultured as 3D spheroids assessed as inhibition of cell growth measured after 72 hrs by MTT assay; assay type: functional, cell-based; conditions: BXPC-3, 72 h
PSN1 [7] = test: Antiproliferative activity against human PSN1 cells expressing KRAS mutant cultured as 3D spheroids assessed as inhibition of cell growth measured after 72 hrs by MTT assay; assay type: functional, cell-based; conditions: PSN1, 72 h
PSN1 [8] = test: Induction of reactive oxygen species production in human PSN1 cells assessed as decrease in total cellular sulfhydryls level at IC50 incubated for 24 hrs by DTNB reagent based spectrophotometric analysis; assay type: functional, cell-based
PSN1 [9] = test: Inhibition of PDK in human PSN1 cells expressing KRAS mutant assessed as decrease in lactate production levels at IC50 incubated for 60 mins by colorimetric analysis; assay type: cell-based
Heat shock protein HSP90 = Heat shock protein HSP90 (Homo sapiens, UniProt P07900+P08238); test: Inhibition of human recombinant HSP90 at 1.5 uM incubated for 30 mins by fluorescence polarization based analysis relative to control; assay type: protein assay
PSN1 [10] = test: Downregulation of PDHA1 phosphorylation in human PSN1 cells at IC50 incubated for 24 hrs by ELISA assay; assay type: functional, cell-based
PSN1 [11] = test: Inhibition of PDK in human PSN1 cells expressing KRAS mutant assessed as increase in cellular oxygen consumption at IC50 incubated for 60 mins by fluorescence based analysis; assay type: cell-based
[12] = biological target: T1, [Pyruvate dehydrogenase (acetyl-transferring)] kinase isozyme 1, mitochondrial; test: Inhibition of PDK1 (unknown origin) incubated for 30 mins followed by substrate addition measured after 60 mins in presence of ATP by ADP-Glo luminescent assay
PSN1 [13] = test: Induction of reactive oxygen species production in human PSN1 cells assessed as increase in cellular hydrogen peroxide formation at 5 uM by CM-H2DCFDA staining based analysis; assay type: functional, cell-based
PSN1 [14] = test: Induction of mitochondrial membrane potential loss in human PSN1 cells at IC50 incubated for 60 mins by fluorescence based analysis; assay type: functional
[15] = biological target: [Pyruvate dehydrogenase (acetyl-transferring)] kinase isozyme 4, mitochondrial (Homo sapiens) (UniProt Q16654); test: Inhibition of PDK4 (unknown origin) at 1.5 uM incubated for 30 mins followed by substrate addition measured after 60 mins in presence of ATP by ADP-Glo luminescent assay relative to control; conditions: time 90.0 min
Sequence of [Pyruvate dehydrogenase (acetyl-transferring)] kinase isozyme 4, mitochondrial (Homo sapiens) (Q16654 whole entry, looked up): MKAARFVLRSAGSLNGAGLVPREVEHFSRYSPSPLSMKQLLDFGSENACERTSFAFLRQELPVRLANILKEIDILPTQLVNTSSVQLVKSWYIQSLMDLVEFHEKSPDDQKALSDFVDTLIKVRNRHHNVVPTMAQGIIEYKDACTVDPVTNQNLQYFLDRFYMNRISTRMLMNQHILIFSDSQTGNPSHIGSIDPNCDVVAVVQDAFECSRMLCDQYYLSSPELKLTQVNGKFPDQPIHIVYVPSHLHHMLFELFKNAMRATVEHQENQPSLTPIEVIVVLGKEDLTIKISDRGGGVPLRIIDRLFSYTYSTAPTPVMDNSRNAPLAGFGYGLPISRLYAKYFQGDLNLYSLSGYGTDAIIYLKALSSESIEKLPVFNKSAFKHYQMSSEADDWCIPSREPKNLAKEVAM

T1 sequence (Q15118 whole entry): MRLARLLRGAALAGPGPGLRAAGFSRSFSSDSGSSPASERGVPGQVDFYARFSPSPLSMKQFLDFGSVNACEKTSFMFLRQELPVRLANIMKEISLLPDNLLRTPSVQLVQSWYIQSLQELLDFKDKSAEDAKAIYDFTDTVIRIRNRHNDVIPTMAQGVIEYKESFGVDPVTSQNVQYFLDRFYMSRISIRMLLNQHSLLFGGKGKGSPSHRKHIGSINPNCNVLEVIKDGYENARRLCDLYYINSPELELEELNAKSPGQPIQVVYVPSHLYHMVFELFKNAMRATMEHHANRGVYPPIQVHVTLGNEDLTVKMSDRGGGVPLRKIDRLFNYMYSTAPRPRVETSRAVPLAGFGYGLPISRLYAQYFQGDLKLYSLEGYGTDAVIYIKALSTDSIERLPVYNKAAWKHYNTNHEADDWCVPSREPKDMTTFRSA
Sequence of [Pyruvate dehydrogenase (acetyl-transferring)] kinase isozyme 3, mitochondrial (Homo sapiens) (Q15120 whole entry, looked up): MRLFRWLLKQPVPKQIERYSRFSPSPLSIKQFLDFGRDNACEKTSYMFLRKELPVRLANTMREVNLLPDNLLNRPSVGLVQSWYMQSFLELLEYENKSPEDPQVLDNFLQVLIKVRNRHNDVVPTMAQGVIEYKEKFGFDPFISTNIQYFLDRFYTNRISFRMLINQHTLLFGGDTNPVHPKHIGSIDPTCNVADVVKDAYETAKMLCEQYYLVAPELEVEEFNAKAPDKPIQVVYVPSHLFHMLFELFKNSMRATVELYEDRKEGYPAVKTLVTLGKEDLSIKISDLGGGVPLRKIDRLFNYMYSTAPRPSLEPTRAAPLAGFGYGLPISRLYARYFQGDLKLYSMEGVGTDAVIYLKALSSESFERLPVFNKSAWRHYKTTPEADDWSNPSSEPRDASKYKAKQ

Row | Compound | inhibition [1] | inhibition [2] | pIC50 (BXPC-3 [3]) | pIC50 (PSN1 [4]) | residual activity [5] | pIC50 (BXPC-3 [6]) | pIC50 (PSN1 [7]) | Activity (PSN1 [8]) | inhibition (PSN1 [9]) | inhibition (Heat shock protein HSP90) | Activity (PSN1 [10]) | inhibition (PSN1 [11]) | pIC50 [12] | Activity (PSN1 [13]) | Activity (PSN1 [14]) | inhibition [15]
1 | Cn1cc(-c2nc(N)nnc2-c2c[nH]c3ccc(F)cc23)c2cccnc21 | 100% | 100% | 5.66 | 5.49 | 40% | 4.65 | 4.69 | – | – | – | – | – | – | – | – | –
2 | COc1ccc2[nH]cc(-c3nc(N)nnc3-c3cn(C)c4ncccc34)c2c1 | – | 100% | 5.85 | 5.64 | 40% | 4.87 | 4.87 | – | – | – | – | – | – | – | – | –
3 | Nc1nnc(-c2c[nH]c3ncccc23)c(-c2c[nH]c3ccc(Br)cc23)n1 | – | 100% | 5.74 | 5.80 | 40% | 4.79 | 4.82 | – | – | – | – | – | – | – | – | –
4 | Cn1cc(-c2nnc(N)nc2-c2c[nH]c3ccc(Br)cc23)c2cccnc21 | 100% | 100% | 5.64 | 5.54 | 40% | 4.59 | 4.68 | – | – | – | – | – | – | – | – | –
5 | Cn1cc(-c2nc(N)nnc2-c2c[nH]c3ccc(F)cc23)c2cc(Br)cnc21 | – | – | 6.70 | 5.64 | 60% | 5.30 | 5.08 | Active | Active | 60% | Active | Active | 6.82 | Active | Active | 60%
6 | Nc1nnc(-c2c[nH]c3ccc(F)cc23)c(-c2c[nH]c3ncccc23)n1 | – | 100% | 5.92 | 5.80 | 40% | 4.65 | 4.65 | – | – | – | – | – | – | – | – | –
7 | Cn1cc(-c2nnc(N)nc2-c2c[nH]c3ccccc23)c2cccnc21 | – | 100% | 5.74 | 5.66 | 40% | 4.79 | 4.70 | – | – | – | – | – | – | – | – | –
8 | O=C(O)C(Cl)Cl [DICHLOROACETIC ACID] | – | – | < 3.00 | < 3.00 | – | < 3.00 | < 3.00 | – | – | – | – | – | – | – | – | –
9 | CCCCCC[C@H]1C(=O)O[C@H](C)[C@H](NC(=O)c2cccc(NC=O)c2O)C(=O)O[C@@H](C)[C@@H]1OC(=O)CC(C)C | – | – | – | – | – | – | – | – | – | – | – | – | – | Active | – | –
10 | COc1ccc2[nH]cc(-c3nnc(N)nc3-c3c[nH]c4ncc(Br)cc34)c2c1 | – | 100% | 5.49 | 5.47 | 40% | 4.56 | 4.66 | – | – | – | – | – | – | – | – | –
11 | Nc1nnc(-c2c[nH]c3ncc(Br)cc23)c(-c2c[nH]c3ccc(F)cc23)n1 | 100% | 100% | 5.60 | 5.54 | 40% | 4.71 | 4.55 | – | – | – | – | – | – | – | – | –
12 | Cn1cc(-c2nnc(N)nc2-c2c[nH]c3ccccc23)c2cc(Br)cnc21 | – | 100% | 5.49 | 5.34 | 40% | 4.47 | 4.50 | – | – | – | – | – | – | – | – | –
13 | Nc1nnc(-c2c[nH]c3ccc(F)cc23)c(-c2c[nH]c3ncc(Br)cc23)n1 | 100% | 100% | 5.77 | 5.89 | 40% | 4.83 | 4.72 | – | – | – | – | – | – | – | – | –
14 | Cn1cc(-c2nc(N)nnc2-c2c[nH]c3ccccc23)c2cccnc21 | – | 100% | 5.72 | 5.68 | 40% | 4.81 | 4.88 | – | – | – | – | – | – | – | – | –
15 | Nc1nnc(-c2c[nH]c3ncccc23)c(-c2c[nH]c3ccc(F)cc23)n1 | – | 100% | 5.59 | 5.49 | 40% | 4.71 | 4.70 | – | – | – | – | – | – | – | – | –
16 | Nc1nnc(-c2c[nH]c3ccc(Br)cc23)c(-c2c[nH]c3ncccc23)n1 | – | 100% | – | – | 40% | – | – | – | – | – | – | – | – | – | – | –
17 | COc1ccc2[nH]cc(-c3nnc(N)nc3-c3c[nH]c4ncccc34)c2c1 | – | 100% | – | – | 40% | – | – | – | – | – | – | – | – | – | – | –
18 | COc1ccc2[nH]cc(-c3nnc(N)nc3-c3cn(C)c4ncccc34)c2c1 | – | 100% | 5.82 | 5.68 | 40% | 4.97 | 4.91 | – | – | – | – | – | – | – | – | –
19 | Nc1nnc(-c2c[nH]c3ncc(Br)cc23)c(-c2c[nH]c3ccc(Br)cc23)n1 | 100% | 100% | 5.68 | 5.34 | 40% | 4.54 | 4.63 | – | – | – | – | – | – | – | – | –
20 | Cn1cc(-c2nc(N)nnc2-c2c[nH]c3ccc(Br)cc23)c2cc(Br)cnc21 | – | 100% | 6.15 | 5.96 | 0% | 5.22 | 4.62 | Active | Active | 40% | Active | Active | 7.22 | Active | Active | 0%
21 | Cn1cc(-c2nnc(N)nc2-c2c[nH]c3ccc(F)cc23)c2cccnc21 | 100% | 100% | 5.80 | 5.80 | 40% | 4.84 | 4.80 | – | – | – | – | – | – | – | – | –
22 | O=C(c1ccccc1)C(Cl)Cl | – | – | 4.99 | 4.44 | – | 4.11 | 4.06 | – | Active | – | Active | Active | < 4.00 | – | – | –
23 | COc1ccc2[nH]cc(-c3nc(N)nnc3-c3c[nH]c4ncccc34)c2c1 | 100% | 100% | 5.68 | 5.66 | 40% | 4.47 | 4.45 | – | – | – | – | – | – | – | – | –
24 | COc1ccc2[nH]cc(-c3nc(N)nnc3-c3c[nH]c4ncc(Br)cc34)c2c1 | 100% | 100% | 5.36 | 5.33 | 40% | 4.51 | 4.76 | – | – | – | – | – | – | – | – | –
25 | Cn1cc(-c2nc(N)nnc2-c2c[nH]c3ccccc23)c2cc(Br)cnc21 | – | 100% | 5.57 | 5.33 | 40% | 4.47 | 4.51 | – | – | – | – | – | – | – | – | –
26 | Nc1nnc(-c2c[nH]c3ccc(Br)cc23)c(-c2c[nH]c3ncc(Br)cc23)n1 | – | 100% | 5.85 | 5.82 | 40% | 4.26 | 4.67 | – | – | – | – | – | – | – | – | –
27 | COc1ccc2[nH]cc(-c3nc(N)nnc3-c3cn(C)c4ncc(Br)cc34)c2c1 | 100% | 100% | 6.52 | 5.59 | 40% | 5.20 | 5.08 | – | – | 0% | – | – | – | – | – | –
28 | Cn1cc(-c2nc(N)nnc2-c2c[nH]c3ccc(Br)cc23)c2cccnc21 | 100% | 100% | 5.60 | 5.44 | 40% | 4.70 | 4.62 | – | – | – | – | – | – | – | – | –
29 | Nc1nnc(-c2c[nH]c3ccccc23)c(-c2c[nH]c3ncccc23)n1 | 100% | 100% | 5.82 | 5.74 | 40% | 4.63 | 4.84 | – | – | – | – | – | – | – | – | –
